In ChEMBL document CHEMBL4130519, “Resorcinol-Based Grp94-Selective Inhibitors” (ACS Med Chem Lett, 2017):

What was measured:
RPMI-8226 = experiment: Growth inhibition of human RPMI8226 cells after 72 hrs by MTS/PMS assay; assay type: functional; conditions: RPMI-8226, 72 h
[1] = target: Heat shock protein HSP 90-alpha (Homo sapiens, UniProt P07900); experiment: Displacement of FITC-GDA from Hsp90alpha (unknown origin) after 24 hrs by fluorescence polarization assay; conditions: read-out: Kd(app)
Endoplasmin = Endoplasmin (Canis lupus familiaris, UniProt P41148); experiment: Displacement of FITC-GDA from recombinant canine Grp94 expressed in baculovirus infected Sf21 insect cells after 24 hrs by fluorescence polarization assay; conditions: read-out: Kd(app)
Chain of Endoplasmin (P41148 whole entry): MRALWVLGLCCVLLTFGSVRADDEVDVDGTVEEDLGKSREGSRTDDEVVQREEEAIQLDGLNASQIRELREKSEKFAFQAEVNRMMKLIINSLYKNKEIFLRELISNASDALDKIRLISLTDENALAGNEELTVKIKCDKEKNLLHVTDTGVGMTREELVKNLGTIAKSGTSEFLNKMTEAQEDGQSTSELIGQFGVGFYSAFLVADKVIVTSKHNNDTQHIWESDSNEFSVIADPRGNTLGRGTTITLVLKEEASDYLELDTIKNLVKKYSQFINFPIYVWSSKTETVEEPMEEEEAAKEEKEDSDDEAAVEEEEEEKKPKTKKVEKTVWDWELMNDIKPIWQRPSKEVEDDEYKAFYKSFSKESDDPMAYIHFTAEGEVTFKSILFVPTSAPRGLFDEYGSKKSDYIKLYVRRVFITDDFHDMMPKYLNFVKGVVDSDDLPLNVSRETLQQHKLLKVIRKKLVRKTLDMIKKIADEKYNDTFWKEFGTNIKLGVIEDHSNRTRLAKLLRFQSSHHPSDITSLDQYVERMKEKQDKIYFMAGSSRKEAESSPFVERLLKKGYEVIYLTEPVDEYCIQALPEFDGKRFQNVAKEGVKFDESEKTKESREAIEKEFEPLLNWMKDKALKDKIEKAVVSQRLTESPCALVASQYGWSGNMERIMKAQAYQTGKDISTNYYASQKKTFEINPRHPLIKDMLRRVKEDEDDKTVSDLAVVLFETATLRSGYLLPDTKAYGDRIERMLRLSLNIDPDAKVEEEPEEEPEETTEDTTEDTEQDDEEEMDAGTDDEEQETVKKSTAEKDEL

Heat shock protein HSP90 [2] = target: T1, Heat shock protein HSP90 (Homo sapiens, UniProt P07900+P08238); experiment: Inhibition of Hsp90 in human RPMI8226 cells assessed as induction of Hsp70 expression at 0.75 to 7.5 uM after 24 hrs by Western blot analysis; assay type: cell-based
Heat shock protein HSP90 [3] = target: T1, Heat shock protein HSP90; experiment: Inhibition of Hsp90 in human RPMI8226 cells assessed as induction of Akt degradation at 0.75 to 7.5 uM after 24 hrs by Western blot analysis; assay type: cell-based

Row | SMILES | GI50 (RPMI-8226) [nM] | Kd [1] [nM] | Kd (Endoplasmin) [nM] | inhibition (INH) (Heat shock protein HSP90 [2]) | inhibition (INH) (Heat shock protein HSP90 [3])
1 | O=C(c1cc(-c2ccccc2)c(O)cc1O)N1Cc2ccccc2C1 | > 25000 | > 100000 | > 100000 | – | –
2 | COC(=O)c1cc(C(=O)N2Cc3ccccc3C2)c(O)cc1O | 13800 | > 10000 | > 10000 | – | –
3 | CCOC(=O)c1cc(C(=O)N2Cc3ccccc3C2)c(O)cc1O | – | 3520 | 770 | – | –
4 | O=C(c1cc(Cc2ccccc2Cl)c(O)cc1O)N1Cc2ccccc2C1 | – | 200 | 60 | – | –
5 | O=C(c1cc(N2CCc3ccccc32)c(O)cc1O)N1Cc2ccccc2C1 | – | > 50000 | 9890 | – | –
6 | COC(=O)c1c(O)cc(O)c(Cl)c1CCc1nccn1Cc1ccccc1 | 10200 | – | – | – | –
7 | O=C(c1cc(Sc2ccc(O)cc2)c(O)cc1O)N1Cc2ccccc2C1 | – | 52 | 70 | – | –
8 | COC1=C2C[C@@H](C)C[C@H](OC)[C@H](O)[C@@H](C)/C=C(\C)[C@H](OC(N)=O)[C@@H](OC)/C=C\C=C(/C)C(=O)NC(=CC1=O)C2=O [GELDANAMYCIN] | 3 | – | – | – | –
9 | O=C(c1cc(Sc2ccc(Cl)cc2Cl)c(O)cc1O)N1Cc2ccccc2C1 | – | 460 | 59 | – | –

Second part, the compound after the results:

Row | GI50 (RPMI-8226) [nM] | Kd [1] [nM] | Kd (Endoplasmin) [nM] | inhibition (INH) (Heat shock protein HSP90 [2]) | inhibition (INH) (Heat shock protein HSP90 [3]) | SMILES
10 | 1900 | 37 | 34 | – | – | COc1cccc(Sc2cc(C(=O)N3Cc4ccccc4C3)c(O)cc2O)c1
11 | – | 31 | 29 | – | – | Cc1ccc(C)c(Sc2cc(C(=O)N3Cc4ccccc4C3)c(O)cc2O)c1
12 | 3700 | 66 | 15 | – | – | O=C(c1cc(Cc2ccccc2)c(O)cc1O)N1Cc2ccccc2C1
13 | – | 26 | 13 | – | – | O=C(c1cc(Sc2ccccc2)c(O)cc1O)N1Cc2ccccc2C1
14 | – | – | 20 | – | – | O=C(c1cc(Br)c(O)cc1O)N1Cc2ccccc2C1
15 | – | 70 | 30 | – | – | Cc1ccc(Sc2cc(C(=O)N3Cc4ccccc4C3)c(O)cc2O)c(C)c1
16 | – | 65 | 29 | – | – | O=C(c1cc(Sc2ccccc2O)c(O)cc1O)N1Cc2ccccc2C1
17 | 1400 | 77 | 8 | Not Active | Not Active | O=C(c1cc(Cc2ccc(F)cc2)c(O)cc1O)N1Cc2ccccc2C1
18 | 2700 | 40 | 40 | – | – | Cc1ccc(Cc2cc(C(=O)N3Cc4ccccc4C3)c(O)cc2O)cc1
19 | – | 66 | 21 | – | – | Cc1ccc(Sc2cc(C(=O)N3Cc4ccccc4C3)c(O)cc2O)cc1C
20 | 3000 | 60 | 13 | – | – | O=C(c1cc(Cc2ccc(Cl)cc2)c(O)cc1O)N1Cc2ccccc2C1
21 | – | 29 | 31 | – | – | O=C(c1cc(Sc2cc(Cl)cc(Cl)c2)c(O)cc1O)N1Cc2ccccc2C1
